IC50 and DC50 data for 27 compounds are collected here from patent US20240308976A1, “COMPOUNDS THAT MEDIATE PROTEIN DEGRADATION AND USES THEREOF” (Monte Rosa Therapeutics, Inc., priority 2021, published 2024).

The target of one test is CRBN-DDB1 (Homo sapiens, UniProt Q96SW2). Nature of the test: Compound binding to CRBN by HTRF assay. The settings on record: CRBN-DDB1 2.5 nM, Cy5-Thalidomide 100 nM, 30 min at ambient temperature; read-out: HTRF Class (Cereblon binding, HTRF IC50). A digest of the protocol: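 Cy5-thalidomide (100 nM) displacement from His-tagged CRBN-DDB1 (2.5 nM) read by terbium-cryptate HTRF (665/620 nm), in 20 mM HEPES, 20 mM NaCl, 0.2 mM TCEP, 0.2 mM EDTA, 0.005% Tween20. Compounds tested as 10-point 1:3 series, 30 min at ambient temperature. Signal normalised to DMSO and lenalidomide controls; IC50 fitted, Ki by Cheng-Prusoff.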
CRBN-DDB1, sequence (Q96SW2 whole entry): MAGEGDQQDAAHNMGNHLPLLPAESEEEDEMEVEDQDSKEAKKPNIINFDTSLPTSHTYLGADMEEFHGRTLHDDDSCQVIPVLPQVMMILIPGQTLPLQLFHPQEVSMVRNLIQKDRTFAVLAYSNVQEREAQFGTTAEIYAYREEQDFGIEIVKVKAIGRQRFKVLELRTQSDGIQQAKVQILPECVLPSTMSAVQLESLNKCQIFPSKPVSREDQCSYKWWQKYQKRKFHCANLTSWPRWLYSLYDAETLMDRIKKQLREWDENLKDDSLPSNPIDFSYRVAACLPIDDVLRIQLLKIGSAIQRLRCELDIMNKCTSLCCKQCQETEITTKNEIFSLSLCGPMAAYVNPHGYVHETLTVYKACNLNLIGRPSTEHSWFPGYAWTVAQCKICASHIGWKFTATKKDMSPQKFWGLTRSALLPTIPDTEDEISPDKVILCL
CRBN-DDB1, sequence (Q16531 whole entry partner): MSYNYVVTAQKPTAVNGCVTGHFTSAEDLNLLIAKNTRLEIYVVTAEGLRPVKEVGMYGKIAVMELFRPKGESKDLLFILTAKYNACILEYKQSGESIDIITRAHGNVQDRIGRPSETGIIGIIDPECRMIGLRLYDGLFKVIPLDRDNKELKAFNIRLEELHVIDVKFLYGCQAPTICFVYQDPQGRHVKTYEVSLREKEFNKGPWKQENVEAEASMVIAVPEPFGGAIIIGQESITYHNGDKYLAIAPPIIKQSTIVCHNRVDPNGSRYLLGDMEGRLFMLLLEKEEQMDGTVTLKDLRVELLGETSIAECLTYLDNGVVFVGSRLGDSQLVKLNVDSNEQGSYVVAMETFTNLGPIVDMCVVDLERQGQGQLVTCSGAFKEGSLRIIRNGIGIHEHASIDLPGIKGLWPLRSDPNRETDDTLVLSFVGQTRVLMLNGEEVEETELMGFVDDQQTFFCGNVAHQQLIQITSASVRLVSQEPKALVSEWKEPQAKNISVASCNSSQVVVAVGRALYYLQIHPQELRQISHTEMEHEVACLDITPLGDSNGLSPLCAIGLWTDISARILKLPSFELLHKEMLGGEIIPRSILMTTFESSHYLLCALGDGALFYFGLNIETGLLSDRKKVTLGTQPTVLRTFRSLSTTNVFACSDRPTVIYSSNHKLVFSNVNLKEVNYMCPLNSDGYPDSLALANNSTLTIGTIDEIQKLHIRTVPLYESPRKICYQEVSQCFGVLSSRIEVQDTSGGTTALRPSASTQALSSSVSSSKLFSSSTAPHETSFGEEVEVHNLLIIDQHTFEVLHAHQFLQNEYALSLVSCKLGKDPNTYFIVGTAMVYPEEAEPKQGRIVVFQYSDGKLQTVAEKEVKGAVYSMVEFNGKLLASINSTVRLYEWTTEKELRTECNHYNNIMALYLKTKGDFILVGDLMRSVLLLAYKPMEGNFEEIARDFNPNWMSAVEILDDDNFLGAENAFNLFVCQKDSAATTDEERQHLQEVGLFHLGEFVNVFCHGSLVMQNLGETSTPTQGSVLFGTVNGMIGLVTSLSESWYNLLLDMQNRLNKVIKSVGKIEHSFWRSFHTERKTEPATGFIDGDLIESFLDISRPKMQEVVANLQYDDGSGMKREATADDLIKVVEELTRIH
On the technique in general: In TR-FRET formats the signal depends on donor and acceptor labels being close together.

A further test has as its target T1, GSPT1 (Homo sapiens, UniProt P15170+Q96SW2).
T1 construct: CAL-51 cells were purchased from DSMZ (cat. Number ACC302); host or cells: CAL-51
Nature of the test: Immunofluorescence assay for activity to degrade GSPT1 in CAL-51 cells. Type of test: cell-based. The settings on record: 6 h treatment, read-out: IF Class (GSPT1 degradation, DC50). A digest of the protocol:
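CAL-51 cells treated 6 h with compound (30 μM to 0.1 nM), fixed, immunostained for GSPT1 with DAPI and phalloidin counterstains, imaged by high-content microscopy. Mean per-cell GSPT1 intensity normalized to controls; DC50 by non-linear regression.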

T1 sequence (P15170 whole entry): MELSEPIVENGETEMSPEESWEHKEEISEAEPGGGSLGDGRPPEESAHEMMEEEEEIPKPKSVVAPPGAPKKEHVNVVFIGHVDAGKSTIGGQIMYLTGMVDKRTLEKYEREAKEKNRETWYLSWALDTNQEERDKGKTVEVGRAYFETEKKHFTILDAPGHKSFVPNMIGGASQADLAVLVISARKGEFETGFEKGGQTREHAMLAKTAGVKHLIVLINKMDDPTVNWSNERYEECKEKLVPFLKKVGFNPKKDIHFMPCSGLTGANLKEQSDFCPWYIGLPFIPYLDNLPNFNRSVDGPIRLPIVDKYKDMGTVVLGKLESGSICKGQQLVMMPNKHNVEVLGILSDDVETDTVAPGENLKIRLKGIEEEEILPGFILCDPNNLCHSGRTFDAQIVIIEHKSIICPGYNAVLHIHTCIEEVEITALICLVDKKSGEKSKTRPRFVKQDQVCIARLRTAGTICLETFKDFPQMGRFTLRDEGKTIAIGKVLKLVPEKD
T1 sequence (Q96SW2 whole entry): as the sequence (Q96SW2 whole entry) above
T1 sequence (Q16531 2-1140 partner limits assumed): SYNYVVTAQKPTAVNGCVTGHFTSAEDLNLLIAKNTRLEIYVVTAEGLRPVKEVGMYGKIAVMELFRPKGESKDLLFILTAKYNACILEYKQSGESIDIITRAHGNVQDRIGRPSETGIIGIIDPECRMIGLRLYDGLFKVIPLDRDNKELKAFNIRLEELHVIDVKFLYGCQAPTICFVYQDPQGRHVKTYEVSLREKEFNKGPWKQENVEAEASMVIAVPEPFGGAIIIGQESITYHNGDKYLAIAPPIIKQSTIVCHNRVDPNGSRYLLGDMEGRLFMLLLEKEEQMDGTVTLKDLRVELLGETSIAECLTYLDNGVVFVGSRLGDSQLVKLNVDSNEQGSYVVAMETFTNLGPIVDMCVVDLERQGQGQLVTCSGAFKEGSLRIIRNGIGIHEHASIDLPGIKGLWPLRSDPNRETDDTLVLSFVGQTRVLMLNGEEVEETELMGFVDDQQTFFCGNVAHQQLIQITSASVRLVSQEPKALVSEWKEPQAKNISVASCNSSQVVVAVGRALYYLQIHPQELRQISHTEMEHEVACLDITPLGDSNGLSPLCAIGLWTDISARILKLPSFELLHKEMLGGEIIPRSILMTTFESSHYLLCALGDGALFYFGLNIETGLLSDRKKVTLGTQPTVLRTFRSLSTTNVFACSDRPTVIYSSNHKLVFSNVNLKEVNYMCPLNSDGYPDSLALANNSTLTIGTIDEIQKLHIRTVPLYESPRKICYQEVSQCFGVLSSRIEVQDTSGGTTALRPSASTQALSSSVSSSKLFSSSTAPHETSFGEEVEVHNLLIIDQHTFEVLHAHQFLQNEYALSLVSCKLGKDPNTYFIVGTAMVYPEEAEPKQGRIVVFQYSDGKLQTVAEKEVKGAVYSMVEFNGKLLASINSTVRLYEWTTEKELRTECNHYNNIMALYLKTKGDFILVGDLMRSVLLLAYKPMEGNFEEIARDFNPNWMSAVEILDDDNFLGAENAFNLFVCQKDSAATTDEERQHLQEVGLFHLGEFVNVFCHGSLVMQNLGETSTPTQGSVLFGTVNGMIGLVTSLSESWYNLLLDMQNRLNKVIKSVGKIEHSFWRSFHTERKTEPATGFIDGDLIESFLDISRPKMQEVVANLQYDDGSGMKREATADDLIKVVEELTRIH

Turning to `O=C1CCC(c2c(F)cc(N3CC(OC(=O)Nc4cc(F)cc(Cl)c4)C3)cc2F)C(=O)N1` (stereo not drawn) [Compound 34, 1-(4-(2,6-dioxopiperidin-3-yl)-3,5-difluorophenyl)azetidin-3-yl(3-chloro-5-fluorophenyl)carbamate], the IC50 on CRBN-DDB1 was in the range of 100 to 1000 nM. Moreover, at GSPT1, the DC50 lay in the range of 30 to 300 nM.

As for `O=C1CCC(c2c(F)cc(N3CC(OC(=O)NCC(F)(F)F)C3)cc2F)C(=O)N1` (stereo not drawn) [Compound 87, 1-(4-(2,6-dioxopiperidin-3-yl)-3,5-difluorophenyl)azetidin-3-yl (2,2,2-trifluoroethyl)carbamate], the IC50 on CRBN-DDB1 lay in the range of 100 to 1000 nM. Also, the DC50 on GSPT1 was above 300 nM.

Turning to `O=C1CCC(c2c(F)cc(N3CC(OC(=O)NCC4CCC4)C3)cc2F)C(=O)N1` (stereo not drawn) [Compound 91, 1-(4-(2,6-dioxopiperidin-3-yl)-3,5-difluorophenyl)azetidin-3-yl (cyclobutylmethyl)carbamate], the IC50 on CRBN-DDB1 is 100 to 1000 nM. In addition, the DC50 at GSPT1 lay within 30 to 300 nM.

In the case of `Cc1cc(C)cc(NC(=O)OC2CN(c3cc(F)c(C4CCC(=O)NC4=O)c(F)c3)C2)c1` (stereo not drawn) [Compound 4, 1-(4-(2,6-dioxopiperidin-3-yl)-3,5-difluorophenyl)azetidin-3-yl (3,5-dimethyl phenyl)carbamate], the 50% inhibitory concentration (IC50) at CRBN-DDB1 was in the range of 100 to 1000 nM. For the same compound, at GSPT1, the DC50 was 30 to 300 nM.

Take `O=C1CCC(c2c(F)cc(N3CC(OC(=O)Nc4ccc(F)c(OC(F)F)c4)C3)cc2F)C(=O)N1` (stereo not drawn) [Compound 32, 1-(4-(2,6-dioxopiperidin-3-yl)-3,5-difluorophenyl)azetidin-3-yl (3-(difluoromethoxy)-4-fluorophenyl)carbamate]: on CRBN-DDB1, the IC50 lay in the range of 100 to 1000 nM. In addition, the DC50 on GSPT1 was at most 30 nM.

`C[C@H]1CC[C@H](NC(=O)OC2CN(c3cc(F)c(C4CCC(=O)NC4=O)c(F)c3)C2)CC1` (stereo partly drawn) [Compound 124, 1-(4-(2,6-dioxopiperidin-3-yl)-3,5-difluorophenyl)azetidin-3-yl((1R,4R)-4-methylcyclohexyl) carbamate]: the IC50 at CRBN-DDB1 was at most 100 nM. Further, the DC50 at GSPT1 was at most 30 nM.

Take `CCCCNC(=O)OC1CN(c2cc(F)c(C3CCC(=O)NC3=O)c(F)c2)C1` (stereo not drawn) [Compound 131, 1-(4-(2,6-dioxopiperidin-3-yl)-3,5-difluorophenyl)azetidin-3-yl butylcarbamate]: the IC50 on CRBN-DDB1 was 100 to 1000 nM. In addition, at GSPT1, the DC50 is 30 to 300 nM.

Regarding `O=C1CCC(c2c(F)cc(N3CC(OC(=O)NC4CCOCC4)C3)cc2F)C(=O)N1` (stereo not drawn) [Compound 94, 1-(4-(2,6-dioxopiperidin-3-yl)-3,5-difluorophenyl)azetidin-3-yl (tetrahydro-2H-pyran-4-yl)carbamate], at CRBN-DDB1, the IC50 was in the range of 100 to 1000 nM. Further, the 50% degradation concentration (DC50) on GSPT1 was above 300 nM.

Regarding `CC1(c2ccc(NC(=O)OC3CN(c4cc(F)c(C5CCC(=O)NC5=O)c(F)c4)C3)cn2)CC1` (stereo not drawn) [Compound 43, 1-(4-(2,6-dioxopiperidin-3-yl)-3,5-difluorophenyl)azetidin-3-yl(6-(1-methylcyclopropyl)pyridin-3-yl) carbamate], the half-inhibitory concentration (IC50) on CRBN-DDB1 lay within 100 to 1000 nM. In addition, the DC50 on GSPT1 is at most 30 nM.

`Cc1c(Cl)cc(NC(=O)NC2CN(c3cc(F)c(C4CCC(=O)NC4=O)c(F)c3)C2)cc1CN1CC2CC1CO2` (stereo not drawn) [Compound 9, 1-(3-(2-oxa-5-azabicyclo[2.2.1]heptan-5-ylmethyl)-5-chloro-4-methylphenyl)-3-(1-(4-(2,6-dioxopiperidin-3-yl)-3,5-difluorophenyl)azetidin-3-yl)urea]: on CRBN-DDB1, the 50% inhibitory concentration (IC50) was at most 100 nM. On GSPT1, the DC50 is at most 30 nM.

As for `CC(C)(C)NC(=O)OC1CN(c2cc(F)c(C3CCC(=O)NC3=O)c(F)c2)C1` (stereo not drawn) [Compound 89, 1-(4-(2,6-dioxopiperidin-3-yl)-3,5-difluorophenyl)azetidin-3-yl tert-butylcarbamate], the IC50 on CRBN-DDB1 fell in the range of 100 to 1000 nM. Besides, on GSPT1, the DC50 was above 300 nM.

For `Cc1ccc(NC(=O)OC2CN(c3cc(F)c(C4CCC(=O)NC4=O)c(F)c3)C2)cc1Cl` (stereo not drawn) [Compound 2, 1-(4-(2,6-dioxopiperidin-3-yl)-3,5-difluorophenyl)azetidin-3-yl(3-chloro-4-methylphenyl) carbamate], the IC50 on CRBN-DDB1 lay in the range of 100 to 1000 nM. The DC50 at GSPT1 is at most 30 nM.

In the case of `Cc1ccc(NC(=O)NC2CN(c3cc(F)c(C4CCC(=O)NC4=O)c(F)c3)C2)cc1OC(F)F` (stereo not drawn) [Compound 21, 1-(3-(difluoromethoxy)-4-methylphenyl)-3-(1-(4-(2,6-dioxopiperidin-3-yl)-3,5-difluorophenyl)azetidin-3-yl)urea], on CRBN-DDB1, the IC50 was 100 to 1000 nM. Further, at GSPT1, the DC50 was at most 30 nM.

Regarding `Cc1ccccc1-c1ccc(NC(=O)NC2CN(c3cc(F)c(C4CCC(=O)NC4=O)c(F)c3)C2)cn1` (stereo not drawn) [Compound 23, 1-(1-(4-(2,6-dioxopiperidin-3-yl)-3,5-difluorophenyl)azetidin-3-yl)-3-(6-(o-tolyl)pyridin-3-yl)urea], the concentration for half-maximal inhibition (IC50) on CRBN-DDB1 is at most 100 nM. In addition, on GSPT1, the DC50 is at most 30 nM.

With `O=C1CCC(c2c(F)cc(N3CC(OC(=O)NCC4CC4)C3)cc2F)C(=O)N1` (stereo not drawn) [Compound 82, 1-(4-(2,6-dioxopiperidin-3-yl)-3,5-difluorophenyl)azetidin-3-yl (cyclopropylmethyl)carbamate], the IC50 on CRBN-DDB1 lay in the range of 100 to 1000 nM. On GSPT1, the DC50 was above 300 nM.

With `Cc1ccc(NC(=O)OC2CN(c3cc(F)c(C4CCC(=O)NC4=O)c(F)c3)C2)cc1OC(F)F` (stereo not drawn) [Compound 6, 1-(4-(2,6-dioxopiperidin-3-yl)-3,5-difluoropheny) azetidin-3-yl(3-(difluoromethoxy)-4-methylphenyl) carbamate], the IC50 on CRBN-DDB1 fell in the range of 100 to 1000 nM. Besides, the DC50 on GSPT1 lay within 30 to 300 nM.

Consider `C[C@H]1C[C@@H](NC(=O)OC2CN(c3cc(F)c(C4CCC(=O)NC4=O)c(F)c3)C2)C1` (stereo partly drawn) [Compound 80, 1-(4-(2,6-dioxopiperidin-3-yl)-3,5-difluorophenyl)azetidin-3-yl ((1S,3S)-3-methylcyclobutyl)carbamate], for which the 50% inhibitory concentration (IC50) on CRBN-DDB1 was at most 100 nM. Also, the DC50 at GSPT1 was at most 30 nM.

With `O=C1CCC(c2c(F)cc(N3CC(OC(=O)NC4CCCC4)C3)cc2F)C(=O)N1` (stereo not drawn) [Compound 92, 1-(4-(2,6-dioxopiperidin-3-yl)-3,5-difluorophenyl)azetidin-3-yl cyclopentylcarbamate], the IC50 on CRBN-DDB1 fell in the range of 100 to 1000 nM. Besides, the DC50 on GSPT1 was above 300 nM.

As to `N#Cc1cc(Cl)cc(NC(=O)OC2CN(c3cc(F)c(C4CCC(=O)NC4=O)c(F)c3)C2)c1` (stereo not drawn) [Compound 47, 1-(4-(2,6-dioxopiperidin-3-yl)-3,5-difluorophenyl)azetidin-3-yl(3-chloro-5-cyanophenyl)carbamate], at CRBN-DDB1, the IC50 was in the range of 100 to 1000 nM. In addition, the DC50 on GSPT1 was in the range of 30 to 300 nM.

Take `C[C@@H]1CCCN1c1ccc(NC(=O)NC2CN(c3cc(F)c(C4CCC(=O)NC4=O)c(F)c3)C2)cn1` (stereo partly drawn) [Compound 30, 1-(1-(4-(2,6-dioxopiperidin-3-yl)-3,5-difluorophenyl)azetidin-3-yl)-3-(6-((R)-2-methylpyrrolidin-1-yl)pyridin-3-yl)urea]: the half-maximal inhibitory concentration (IC50) at CRBN-DDB1 is at most 100 nM. Also, the half-maximal degradation concentration (DC50) on GSPT1 is at most 30 nM.

In the case of `Cc1c(Cl)cc(NC(=O)OC2CN(c3cc(F)c(C4CCC(=O)NC4=O)c(F)c3)C2)cc1OCCN1CCOCC1` (stereo not drawn) [Compound 52, 1-(4-(2,6-dioxopiperidin-3-yl)-3,5-difluorophenyl)azetidin-3-yl(3-chloro-4-methyl-5-(2-morpholinoethoxy)phenyl)carbamate], at CRBN-DDB1, the half-inhibitory concentration (IC50) lay in the range of 100 to 1000 nM. In addition, the DC50 at GSPT1 was at most 30 nM.

Turning to `O=C1CCC(c2c(F)cc(N3CC(OC(=O)NCc4ccccc4)C3)cc2F)C(=O)N1` (stereo not drawn) [Compound 137, 1-(4-(2,6-dioxopiperidin-3-yl)-3,5-difluorophenyl)azetidin-3-yl benzylcarbamate], the IC50 at CRBN-DDB1 is at most 100 nM. Further, on GSPT1, the DC50 lay within 30 to 300 nM.

As to `O=C1CCC(c2c(F)cc(N3CC(OC(=O)NC4COC4)C3)cc2F)C(=O)N1` (stereo not drawn) [Compound 95, 1-(4-(2,6-dioxopiperidin-3-yl)-3,5-difluorophenyl)azetidin-3-yl oxetan-3-ylcarbamate], the IC50 at CRBN-DDB1 was 100 to 1000 nM. In addition, on GSPT1, the DC50 is above 300 nM.

For `O=C1CCC(c2c(F)cc(N3CC(OC(=O)NC45CC(F)(C4)C5)C3)cc2F)C(=O)N1` (stereo not drawn) [Compound 62, 1-(4-(2,6-dioxopiperidin-3-yl)-3,5-difluorophenyl)azetidin-3-yl(3-fluorobicyclo[1.1.1]pentan-1-yl)carbamate], the IC50 on CRBN-DDB1 was in the range of 100 to 1000 nM. Also, on GSPT1, the DC50 was above 300 nM.

As to `O=C1CCC(c2c(F)cc(N3CC(OC(=O)N[C@H]4CCOC4)C3)cc2F)C(=O)N1` (stereo partly drawn) [Compound 81, 1-(4-(2,6-dioxopiperidin-3-yl)-3,5-difluorophenyl)azetidin-3-yl ((S)-tetrahydrofuran-3-yl)carbamate], the half-maximal inhibitory concentration (IC50) at CRBN-DDB1 lay within 100 to 1000 nM. Moreover, at GSPT1, the DC50 was above 300 nM.

As for `O=C1CCC(c2c(F)cc(N3CC(OC(=O)N[C@H]4CCCOC4)C3)cc2F)C(=O)N1` (stereo partly drawn) [Compound 84, 1-(4-(2,6-dioxopiperidin-3-yl)-3,5-difluorophenyl)azetidin-3-yl ((S)-tetrahydro-2H-pyran-3-yl)carbamate], the IC50 on CRBN-DDB1 lay in the range of 100 to 1000 nM. Further, at GSPT1, the DC50 was above 300 nM.

As for `Cc1cc(C)cc(NC(=O)OC2CN(c3ccc(C4CCC(=O)NC4=O)c(Cl)c3)C2)c1` (stereo not drawn) [Compound 31, 1-(3-chloro-4-(2,6-dioxopiperidin-3-yl)phenyl)azetidin-3-yl (3,5-dimethylphenyl)carbamate], the IC50 at CRBN-DDB1 was 100 to 1000 nM. For the same compound, the half-maximal degradation concentration (DC50) on GSPT1 was above 300 nM.

As a reminder, the IC50 is the midpoint of a concentration-inhibition curve. The term DC50 denotes the midpoint of the concentration-degradation curve.
